# Experimental data reported in patent US7138361B2, “Herbicidal heterocycles” (E. I. du Pont de Nemours and Company, priority 2000, dated 2006).
# How the values were obtained:
# Format in all cases: in vivo
# [1] = test system: blackgrass (Alopecurus myosuroides); test: Test B postemergence
# In short: (§1)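 Post-treatment, species sat 13–15 days under greenhouse conditions before visual scoring against controls, 0 (no effect) through 100 (complete control). Application preemergence to sown seeds or postemergence at 1- to 4-leaf stage, using a non-phytotoxic solvent/surfactant formulation.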
# [2] = test system: cocklebur (Xanthium strumarium); test: Test B postemergence
# In short: as §1
# [3] = test system: crabgrass (Digitaria sanguinalis); test: Test B postemergence
# In short: as §1
# Nightshade = test: Test C preemergence
# [4] = test system: Surinam grass (Brachiaria decumbens); test: Test C preemergence; conditions: for Plant response rating (0 to 100), Surinam grass: Rate 500 g/ha, visual evaluation after 12 to 14 days
# In short: (§2)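 Seeds are planted and treated before emergence; for the postemergence test, plants at 1- to 4-leaf stage (2–18 cm) receive the same formulation, a solvent blend containing surfactant. Plants stay in the greenhouse 12–14 days, then response is scored visually from 0 (none) to 100 (complete control).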
# [5] = test system: bermudagrass (Cynodon dactylon); test: Test C preemergence; conditions: for Plant response rating (0 to 100 where 0 is no effect and 100 is complete control), Bermudagrass: Rate 500 g/ha, visual evaluation after 12 to 14 days
# In short: as §2
# [6] = test system: cocklebur (Xanthium strumarium); test: Test C preemergence; conditions: for Plant response rating (0 to 100), Cocklebur: Rate 500 g/ha, visual evaluation after 12 to 14 days
# In short: as §2
# [7] = test system: common ragweed (Ambrosia elatior); test: Test C preemergence; conditions: for Plant response rating (0 to 100), Ragweed, Common: Rate 500 g/ha, visual evaluation after 12 to 14 days
# In short: as §2
# corn (Zea mays) = test: Test C preemergence; conditions: for Plant response rating (0 to 100), Corn: Rate 500 g/ha, visual evaluation after 12 to 14 days
# In short: as §2
# [8] = test system: crabgrass (Digitaria sanguinalis); test: Test C preemergence; conditions: for Plant response rating (0 to 100), Crabgrass: Rate 500 g/ha, visual evaluation after 12 to 14 days
# In short: as §2
# [9] = test system: giant foxtail (Setaria faberii); test: Test C preemergence; conditions: for Plant response rating (0 to 100), Foxtail, Giant: Rate 500 g/ha, visual evaluation after 12 to 14 days
# In short: as §2
# [10] = test system: goosegrass (Eleusine indica); test: Test C preemergence; conditions: for Plant response rating (0 to 100), Goosegrass: Rate 500 g/ha, visual evaluation after 12 to 14 days
# In short: as §2
# [11] = test system: johnsongrass (Sorghum halepense); test: Test C preemergence; conditions: for Plant response rating (0 to 100), Johnsongrass: Rate 500 g/ha, visual evaluation after 12 to 14 days
# In short: as §2
# kochia (Kochia scoparia) = test: Test C preemergence; conditions: for Plant response rating (0 to 100), Kochia: Rate 500 g/ha, visual evaluation after 12 to 14 days
# In short: as §2
# [12] = test system: lambsquarters (Chenopodium album); test: Test C preemergence; conditions: for Plant response rating (0 to 100), Lambsquarters: Rate 500 g/ha, visual evaluation after 12 to 14 days
# In short: as §2
# [13] = test system: morningglory (Ipomoea hederacea); test: Test C preemergence
# In short: as §2
# soybean (Glycine max) = test: Test C preemergence; conditions: for Plant response rating (0 to 100), Soybean: Rate 500 g/ha, visual evaluation after 12 to 14 days
# In short: as §2
# [14] = test system: yellow nutsedge (Cyperus esculentus); test: Test C preemergence; conditions: for Plant response rating (0 to 100), Nutsedge: Rate 500 g/ha, visual evaluation after 12 to 14 days
# In short: as §2
# Sunflower = test: Test C preemergence; conditions: Rate 250 g/ha, scale 0 to 100, 0 no effect, 100 complete control
# [15] = Rate 125 g/ha, scale 0 to 100, 0 no effect, 100 complete control
# [16] = Rate 500 g/ha, scale 0 (no effect) to 100 (complete control), 13 to 15 days
# [17] = Rate 250 g/ha, scale 0 to 100, 0 no effect, 100 complete control
# [18] = preemergence, Rate 62 g/ha, scale 0 to 100
# [19] = preemergence, Rate 250 g/ha, scale 0 to 100, 0 no effect, 100 complete control
compound,measurement,setting,value
CCC(CC)c1ccn(C2CCN(c3ccc(F)c(C(F)(F)F)c3)C2=O)n1 (stereo not shown) [Compound 144],"Plant response rating, Blackgrass",[1]; [15],0
same,"Plant response rating, Blackgrass",[1]; [16],0
same,"Plant response rating, Cocklebur",[2]; [15],0
same,"Plant response rating, Cocklebur",[2]; [16],30
same,"Plant response rating, Crabgrass",[3]; [15],0
same,"Plant response rating, Crabgrass",[3]; [16],40
same,"Plant response rating, Nightshade","Nightshade; Rate 62 g/ha, scale 0 to 100",100
same,"Plant response rating, Nightshade",Nightshade; [15],100
same,"Plant response rating, Nightshade",Nightshade; [17],100
same,"Plant response rating, Surinam grass",[4]; [15],0
same,"Plant response rating, Surinam grass",[4]; [18],0
same,"Plant response rating (0 to 100), Surinam grass",[4]; preemergence,90
same,"Plant response rating, Surinam grass",[4]; [19],0
same,"Plant response rating, Bermudagrass",[5]; [15],100
same,"Plant response rating, Bermudagrass",[5]; [18],100
same,"Plant response rating (0 to 100 where 0 is no effect and 100 is complete control), Bermudagrass",[5]; preemergence,100
same,"Plant response rating, Bermudagrass",[5]; [19],100
same,"Plant response rating, Cocklebur",[6]; [15],60
same,"Plant response rating, Cocklebur",[6]; [18],50
same,"Plant response rating (0 to 100), Cocklebur",[6]; preemergence,60
same,"Plant response rating, Cocklebur",[6]; [19],60
same,"Plant response rating, Ragweed, Common",[7]; [15],0
same,"Plant response rating, Ragweed, Common",[7]; [18],0
same,"Plant response rating (0 to 100), Ragweed, Common",[7]; preemergence,50
same,"Plant response rating, Ragweed, Common",[7]; [19],30
same,"Plant response rating, Corn",corn (Zea mays); [15],50
same,"Plant response rating, Corn",corn (Zea mays); [18],30
same,"Plant response rating (0 to 100), Corn",corn (Zea mays); preemergence,60
same,"Plant response rating, Corn",corn (Zea mays); [19],50
same,"Plant response rating, Crabgrass",[8]; [15],100
same,"Plant response rating, Crabgrass",[8]; [18],100
same,"Plant response rating (0 to 100), Crabgrass",[8]; preemergence,100
same,"Plant response rating, Crabgrass",[8]; [19],100
same,"Plant response rating, Foxtail, Giant",[9]; [15],100
same,"Plant response rating, Foxtail, Giant",[9]; [18],100
same,"Plant response rating (0 to 100), Foxtail, Giant",[9]; preemergence,100
same,"Plant response rating, Foxtail, Giant",[9]; [19],100
same,"Plant response rating, Goosegrass",[10]; [15],100
same,"Plant response rating, Goosegrass",[10]; [18],100
same,"Plant response rating (0 to 100), Goosegrass",[10]; preemergence,100
same,"Plant response rating, Goosegrass",[10]; [19],100
same,"Plant response rating, Johnsongrass",[11]; [15],90
same,"Plant response rating, Johnsongrass",[11]; [18],0
same,"Plant response rating (0 to 100), Johnsongrass",[11]; preemergence,100
same,"Plant response rating, Johnsongrass",[11]; [19],100
same,"Plant response rating, Kochia",kochia (Kochia scoparia); [15],100
same,"Plant response rating, Kochia",kochia (Kochia scoparia); [18],90
same,"Plant response rating (0 to 100), Kochia",kochia (Kochia scoparia); preemergence,100
same,"Plant response rating, Kochia",kochia (Kochia scoparia); [19],100
same,"Plant response rating, Lambsquarters",[12]; [15],100
same,"Plant response rating, Lambsquarters",[12]; [18],100
same,"Plant response rating (0 to 100), Lambsquarters",[12]; preemergence,100
same,"Plant response rating, Lambsquarters",[12]; [19],100
same,"Plant response rating, Morningglory",[13]; [15],0
same,"Plant response rating (0 to 100), Morningglory","[13]; preemergence, Rate 500 g/ha, visual evaluation after 12 to 14 days",30
same,"Plant response rating, Morningglory",[13]; [19],30
same,"Plant response rating, Soybean",soybean (Glycine max); [15],50
same,"Plant response rating, Soybean",soybean (Glycine max); [18],50
same,"Plant response rating (0 to 100), Soybean",soybean (Glycine max); preemergence,70
same,"Plant response rating, Soybean",soybean (Glycine max); [19],70
same,"Plant response rating, Nutsedge",[14]; [15],0
same,"Plant response rating, Nutsedge",[14]; [18],0
same,"Plant response rating (0 to 100), Nutsedge",[14]; preemergence,0
same,"Plant response rating, Nutsedge",[14]; [19],0
same,"Plant response rating, Sunflower",Sunflower,40
CCC(C)c1ccn(C2CCN(c3ccc(F)c(C(F)(F)F)c3)C2=O)n1 (stereo not shown) [Compound 145],"Plant response rating, Blackgrass",[1]; [15],0
same,"Plant response rating, Blackgrass",[1]; [16],0
same,"Plant response rating, Cocklebur",[2]; [15],0
same,"Plant response rating, Cocklebur",[2]; [16],0
same,"Plant response rating, Crabgrass",[3]; [15],0
same,"Plant response rating, Crabgrass",[3]; [16],0
same,"Plant response rating, Nightshade","Nightshade; Rate 62 g/ha, scale 0 to 100",0
same,"Plant response rating, Nightshade",Nightshade; [15],10
same,"Plant response rating, Nightshade",Nightshade; [17],20
same,"Plant response rating, Surinam grass",[4]; [15],50
same,"Plant response rating, Surinam grass",[4]; [18],0
same,"Plant response rating (0 to 100), Surinam grass",[4]; preemergence,100
same,"Plant response rating, Surinam grass",[4]; [19],90
same,"Plant response rating, Bermudagrass",[5]; [15],100
same,"Plant response rating, Bermudagrass",[5]; [18],60
same,"Plant response rating (0 to 100 where 0 is no effect and 100 is complete control), Bermudagrass",[5]; preemergence,100
same,"Plant response rating, Bermudagrass",[5]; [19],100
same,"Plant response rating, Cocklebur",[6]; [15],20
same,"Plant response rating, Cocklebur",[6]; [18],0
same,"Plant response rating (0 to 100), Cocklebur",[6]; preemergence,60
same,"Plant response rating, Cocklebur",[6]; [19],50
same,"Plant response rating, Ragweed, Common",[7]; [15],0
same,"Plant response rating, Ragweed, Common",[7]; [18],0
same,"Plant response rating (0 to 100), Ragweed, Common",[7]; preemergence,20
same,"Plant response rating, Ragweed, Common",[7]; [19],0
same,"Plant response rating, Corn",corn (Zea mays); [15],20
same,"Plant response rating, Corn",corn (Zea mays); [18],0
same,"Plant response rating (0 to 100), Corn",corn (Zea mays); preemergence,40
same,"Plant response rating, Corn",corn (Zea mays); [19],40
same,"Plant response rating, Crabgrass",[8]; [15],100
same,"Plant response rating, Crabgrass",[8]; [18],100
same,"Plant response rating (0 to 100), Crabgrass",[8]; preemergence,100
same,"Plant response rating, Crabgrass",[8]; [19],100
same,"Plant response rating, Foxtail, Giant",[9]; [15],100
same,"Plant response rating, Foxtail, Giant",[9]; [18],100
same,"Plant response rating (0 to 100), Foxtail, Giant",[9]; preemergence,100
same,"Plant response rating, Foxtail, Giant",[9]; [19],100
same,"Plant response rating, Goosegrass",[10]; [15],100
same,"Plant response rating, Goosegrass",[10]; [18],90
same,"Plant response rating (0 to 100), Goosegrass",[10]; preemergence,100
same,"Plant response rating, Goosegrass",[10]; [19],100
same,"Plant response rating, Johnsongrass",[11]; [15],10
same,"Plant response rating, Johnsongrass",[11]; [18],0
same,"Plant response rating (0 to 100), Johnsongrass",[11]; preemergence,90
same,"Plant response rating, Johnsongrass",[11]; [19],20
same,"Plant response rating, Kochia",kochia (Kochia scoparia); [15],100
same,"Plant response rating, Kochia",kochia (Kochia scoparia); [18],100
same,"Plant response rating (0 to 100), Kochia",kochia (Kochia scoparia); preemergence,100
same,"Plant response rating, Kochia",kochia (Kochia scoparia); [19],100
same,"Plant response rating, Lambsquarters",[12]; [15],100
same,"Plant response rating, Lambsquarters",[12]; [18],100
same,"Plant response rating (0 to 100), Lambsquarters",[12]; preemergence,100
same,"Plant response rating, Lambsquarters",[12]; [19],100
same,"Plant response rating, Morningglory",[13]; [15],100
same,"Plant response rating, Morningglory",[13]; [18],0
same,"Plant response rating, Morningglory",[13]; [19],100
same,"Plant response rating, Soybean",soybean (Glycine max); [15],30
same,"Plant response rating, Soybean",soybean (Glycine max); [18],20
same,"Plant response rating (0 to 100), Soybean",soybean (Glycine max); preemergence,60
same,"Plant response rating, Soybean",soybean (Glycine max); [19],30
same,"Plant response rating, Nutsedge",[14]; [15],0
same,"Plant response rating, Nutsedge",[14]; [18],0
same,"Plant response rating (0 to 100), Nutsedge",[14]; preemergence,0
same,"Plant response rating, Nutsedge",[14]; [19],0
same,"Plant response rating, Sunflower",Sunflower,50
